{"source": "patent US5990083A", "about": "“Multicatalytic protease inhibitors” (Cephalon, Inc., priority 1997, dated 1999)", "key": {"[1]": {"tested_on": "Ile113→Thr mutant SOD-1 in human 293 cells", "experiment": "SOD-1 levels in transiently transfected 293 cells (immunoblot)", "settings": "5 μM, 24 hours, FIG. 5", "quoted_text": "The human kidney cell line designated 293 (human 293 cells or 293 cells)was obtained from the American Type Culture Collection (ATCC), 12301 Parklawn Drive, Rockville, Md., 20852 (ATCC #CRL 1573) and grown in Dulbecco's modified Eagle's medium with 4.6 g/L glucose, 10% heat-inactivated horse serum (Gibco/Life Technologies Inc. Gaithersburg, Md.). The human 293 cells were maintained at 37° C. in an atmosphere of 5% CO2. The 293 cells were transiently transfected using the calcium phosphate method (Chen, C. et al., Biotechniques 6: 632 (1988). The pCMV-113 SOD-1 expression vector was introduced into 293 cells and 24 hours later, the cells were incubated with either compound 34, compound 14, or compound 24, all at a concentration of 5 μM, for a duration of 24 hours. The known MCP and other protease inhibitory compounds were solubilized in dimethyl sulfoxide (DMSO). Other 293 cell cultures were incubated with an equal volume of DMSO or left in medium only as negative controls.\nApproximately 48 hours prior to receiving test compounds, 5×10^5 293 cells were seeded in 36 mm dishes and maintained at 37° C. in an atmosphere of 5% CO2. Cells were incubated with MCP inhibitors (compound 34, 14 or 24) or with DMSO as a negative control for a duration of 24 hours. Cell lysates were prepared by lysing the cells in approximately 75 μl of phosphate-buffered saline (PBS) by freeze/thaw cycling. Protein concentrations of the cell lysates were determined using the BCA method (Pierce, Rockford, Ill.) and 2 to 2.5 μg of each sample was electrophoresed on a 4-20% polyacrylamide geol (Novex, San Diego, Calif.) using a Tris/glycine/SDS (25 mM Tris/192 mM glycine/0.1% SDS) buffer system. […] Stained bands corresponding to SOD-1 protein were quantitated using a DocuGel V image analysis system and RFLPscan software (Scanalytics, Billerica, Mass.). Levels of SOD-1 are expressed as units of induction relative to the negative control (i.e., units of experimental divided by units of control)."}, "[2]": {"tested_on": "Ala4→Val mutant SOD-1 in transformed 293 cells", "experiment": "Specificity of MCP activity in SOD-1 turnover, Ala4→Val cell line", "assay_type": "cell-based, human", "settings": "20 μM, 24 hours; FIG. 7; relative to untreated samples", "procedure": "(§1) Res. Comm. (1988) 153: 1201.), a cell penetrating \"calpain\" inhibitor (calpain is a cysteine protease); and DK-3 (Enzyme Systems Products, Dublin, Calif. CBZ-Phe-Ala-CHN2) inhibits lysosomal protease activity. […] Cell lines expressing the indicated SOD-1 isoforms were incubated for 24 hours with the following protease inhibitors: Compound 14, 20 μM; Calpeptin, 10 μM; DK-3, 5 μM; Compound 16, 20 μM; or with DMSO as a negative control. After the 24 hours of incubation with the inhibitors, SOD-1 levels were measured by densitometric scanning of immunoblots. […] Each data point is the average of results from three experiments."}, "[3]": {"tested_on": "wild-type SOD-1 in transformed 293 cells", "experiment": "Specificity of MCP activity in SOD-1 turnover, wild-type cell line", "assay_type": "cell-based, human", "settings": "20 μM, 24 hours; FIG. 7", "procedure": "as §1"}}, "data": [{"compound": "CC(C)C[C@@H](C=O)NC(=O)[C@H](CCCNC(=N)N[N+](=O)[O-])NC(=O)C(CCCCCCCCC#N)C1CCCC1", "note": "(stereo partly drawn) [Compound 14, 10-cyano-2-cyclopentyldecanoyl-N^g-nitro-L-arginyl-L-leucinal]", "values": [{"measurement": "SOD-1 levels compared to controls", "setting": "[1]", "value": "modestly elevated"}, {"measurement": "Increase in the accumulation of SOD-1 protein (Ala4→Val mutant)", "setting": "[2]", "value": "three-fold"}, {"measurement": "Wild-type SOD-1 accumulation", "setting": "[3]", "value": "slight increase"}]}]}
